Laboratory results: the supplement of paper PMC10307832

Assays:
Assay in all cases: relative viability (nuclei count vs DMSO), 5 days (fraction); higher = more cells survive
[1] = compound: CC1=NC=CC(=C1)C2=CC=C(C=C2)CC(=O)NC3=CC=C(C=C3)C4=CN=CC=C4 [Wnt-C59] + Cc1cc(Nc2cc(N3CCN(C)CC3)nc(Sc3ccc(NC(=O)C4CC4)cc3)n2)n[nH]1 [Tozasertib] (partner 0.1 µM)
How it was run: (§1)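 Lung cancer cell lines were seeded in 1536-well plates and dosed by pin tool the next day, with either a single drug or a fixed anchor-drug dose combined with five library-drug doses (not always all listed) spaced in √10 steps. Five days later, one step fixed the cells and stained their nuclei (final 0.05% Triton X-100, 1% formaldehyde, 1 ug/ml Hoechst), and nuclei were counted on 4× images. Relative viability is the nuclei count in treated wells divided by the count in vehicle wells, and each value is the median of duplicate plates.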

[2] = compound: CC1=NC=CC(=C1)C2=CC=C(C=C2)CC(=O)NC3=CC=C(C=C3)C4=CN=CC=C4 [Wnt-C59] + CS(=O)(=O)CCNCc1ccc(-c2ccc3ncnc(Nc4ccc(OCc5cccc(F)c5)c(Cl)c4)c3c2)o1 [Lapatinib] (partner 2 µM)
How it was run: as §1

[3] = compound: CC1=NC=CC(=C1)C2=CC=C(C=C2)CC(=O)NC3=CC=C(C=C3)C4=CN=CC=C4 [Wnt-C59] + C[C@]1(O)C[C@@H](c2nc(-c3ccc4ccc(-c5ccccc5)nc4c3)c3c(N)nccn32)C1 [Linsitinib] (partner 1 µM)
How it was run: as §1

[4] = compound: CC1=NC=CC(=C1)C2=CC=C(C=C2)CC(=O)NC3=CC=C(C=C3)C4=CN=CC=C4 [Wnt-C59] + Cc1nc(NC(=O)N2CCC[C@H]2C(N)=O)sc1-c1ccnc(C(C)(C)C(F)(F)F)c1 [Alpelisib] (partner 2 µM)
How it was run: as §1

[5] = compound: CC1=NC=CC(=C1)C2=CC=C(C=C2)CC(=O)NC3=CC=C(C=C3)C4=CN=CC=C4 [Wnt-C59] + C[C@@H](Oc1cc(-c2cnn(C3CCNCC3)c2)cnc1N)c1c(Cl)ccc(F)c1Cl [Crizotinib] (partner 1 µM)
How it was run: as §1

| Cell Line | relative viability ([1]; first compound 0.001 µM) | relative viability ([1]; first compound 0.01 µM) | relative viability ([1]; first compound 0.03162 µM) | relative viability ([1]; first compound 0.1 µM) | relative viability ([2]; first compound 0.001 µM) | relative viability ([2]; first compound 0.01 µM) | relative viability ([2]; first compound 0.03162 µM) | relative viability ([2]; first compound 0.1 µM) | relative viability ([3]; first compound 0.001 µM) | relative viability ([3]; first compound 0.01 µM) | relative viability ([3]; first compound 0.03162 µM) | relative viability ([3]; first compound 0.1 µM) | relative viability ([4]; first compound 0.001 µM) | relative viability ([4]; first compound 0.01 µM) | relative viability ([4]; first compound 0.03162 µM) | relative viability ([4]; first compound 0.1 µM) | relative viability ([5]; first compound 0.001 µM) | relative viability ([5]; first compound 0.01 µM) | relative viability ([5]; first compound 0.03162 µM) | relative viability ([5]; first compound 0.1 µM) |
| --- | --- | --- | --- | --- | --- | --- | --- | --- | --- | --- | --- | --- | --- | --- | --- | --- | --- | --- | --- | --- |
| HOP-62 | 0.349 | 0.363 | 0.394 | 0.314 | 0.907 | 0.996 | 1.04 | 1.03 | 1.09 | 1.1 | 1.14 | 0.95 | 1.13 | 0.919 | 1.1 | 0.644 | 0.973 | 0.916 | 0.974 | 0.789 |
| LCLC-103H | 0.516 | 0.487 | 0.475 | 0.474 |  |  |  |  | 1.08 | 1.08 | 0.986 | 1.09 | 0.951 | 0.969 | 1.04 | 1.16 | 1.08 | 0.977 | 1 | 1.02 |
| Calu-6 |  |  |  |  | 1.07 | 1.06 | 1.08 | 0.951 | 0.89 | 0.9 | 0.987 | 0.955 | 0.898 | 0.945 | 1.15 | 0.938 | 0.787 | 0.779 | 0.883 | 0.825 |
| NCI-H1650 | 0.423 | 0.477 | 0.499 | 0.423 | 0.761 | 0.74 | 0.708 | 0.698 |  |  |  |  |  |  |  |  | 1.08 | 1.02 | 0.896 | 0.89 |
| NCI-H1703 |  |  |  |  | 1.16 | 1.28 | 1.3 | 1.12 | 0.721 | 0.631 | 0.739 | 0.899 | 0.33 | 0.328 | 0.352 | 0.283 | 0.988 | 0.735 | 0.585 | 0.64 |
| LK-2 | 0.165 | 0.173 | 0.189 | 0.18 | 0.853 | 0.913 | 0.799 | 0.864 | 0.529 | 0.708 | 0.563 | 0.582 | 1.29 | 1.06 | 1.03 | 0.68 | 0.228 | 0.238 | 0.212 | 0.259 |
| LCLC-97TM1 | 0.252 | 0.205 | 0.226 | 0.182 | 1.64 | 0.603 | 1.07 | 0.687 | 0.182 | 0.171 | 0.176 | 0.156 | 0.268 | 0.256 | 0.19 | 0.2 | 0.292 | 0.344 | 0.545 | 0.283 |
| NCI-H1793 | 0.309 |  | 0.302 | 0.345 | 0.787 | 0.555 | 0.717 | 0.855 | 0.926 | 0.729 | 0.875 | 0.865 | 0.827 | 0.536 | 0.898 | 0.668 |  |  |  |  |
| SW 900 | 0.538 | 0.502 | 0.557 | 0.589 |  |  |  |  |  |  |  |  |  |  |  |  |  |  |  |  |
| SK-MES-1 | 0.94 | 0.913 | 0.944 | 0.824 | 0.543 | 0.5 | 0.467 | 0.448 | 1.11 | 1.1 | 1.02 | 1.08 | 0.841 | 0.909 | 0.833 | 0.965 | 1.01 | 0.973 | 1.07 | 0.959 |
| NCI-H2023 | 0.406 | 0.332 | 0.352 | 0.356 | 0.715 | 0.93 | 1.17 | 0.666 | 0.736 | 0.58 | 0.648 | 0.631 | 0.627 | 0.622 | 0.656 | 0.508 | 0.701 | 0.65 | 0.686 | 0.594 |
| NCI-H1792 |  |  |  |  | 0.866 | 0.982 | 0.991 | 0.913 | 0.557 | 0.5 | 0.465 | 0.549 | 0.707 | 0.693 | 0.806 | 0.785 | 0.914 | 1.02 | 1.04 | 1.06 |
| NCI-H661 | 0.351 | 0.324 | 0.352 | 0.357 | 0.418 | 0.613 | 0.558 | 0.577 | 0.581 | 0.621 | 0.548 | 0.723 | 0.621 | 0.595 | 0.813 | 0.821 | 1 | 1.05 | 0.981 | 0.948 |
| NCI-H1915 | 0.471 | 0.404 | 0.508 | 0.457 | 0.88 | 0.939 | 1.03 | 0.944 | 1.07 | 1.04 | 1.12 | 1.09 | 1.07 | 1.01 | 1.07 | 1.03 | 0.771 | 0.852 | 1.02 | 0.912 |
| EPLC-272H | 0.297 | 0.25 | 0.362 | 0.276 | 0.837 | 0.959 | 1.19 | 0.954 | 1.29 | 1.23 | 1.08 | 1.15 | 0.96 | 0.861 | 0.976 | 0.921 | 0.955 | 0.8 | 0.874 | 0.53 |
| ChaGo-K-1 | 0.221 | 0.233 | 0.242 | 0.223 |  |  |  |  |  |  |  |  |  |  |  |  | 1.08 |  | 1.21 | 1.09 |
| NCI-H3122 | 0.409 | 0.386 | 0.401 | 0.377 | 0.967 | 1.07 | 0.993 | 1.04 | 1.04 | 0.931 | 1.02 | 1.02 | 0.836 | 0.784 | 0.872 | 0.716 | 0.28 | 0.268 | 0.283 | 0.249 |
| IA-LM |  |  |  |  | 0.876 | 0.768 | 0.47 | 0.674 | 0.67 | 0.549 | 0.621 | 0.533 | 0.84 | 0.862 | 0.759 | 0.804 | 0.919 | 0.746 | 0.632 | 0.705 |
